From PMC10385371, “Discovery of Novel Coumarin-Schiff Base Hybrids as Potential Acetylcholinesterase Inhibitors: Design, Synthesis, Enzyme Inhibition, and Computational Studies” (Pharmaceuticals, 2023)
“And” between values parts separate entries of the source, which are not always exact repeats. Identical values can stand only once.

Key:
[1] = molecular target: T1, Acetylcholinesterase (Type VI-S, from Electrophorus electricus) (Electrophorus electricus, UniProt O42275); assay: biochemical; assay type: biochemical; conditions: for IC50: read-out: IC50 against AChE; for potency relative to galantamine (positive control): ratio of AChE IC50 values
T1 construct: purchased Sigma Aldrich Type VI-S (catalogue number not given)
Experimental: The procedure described by Ellman, slightly modified, was performed to assess the AChE inhibitory activity of synthesized compounds, according to reported procedures in the literature. Detailed protocol is provided in supplementary materials. […]
In vitro inhibition study on AChE
The assay for AChE inhibitory activity was done based on a modified protocol. Acetylcholinesterase (Type VI-S, from Electrophorus electricus), 5,5′-dithiobis-2-nitrobenzoic acid (Ellman's reagent, DTNB) and acetylthiocholine chloride (ATCI) were purchased from Sigma Aldrich. Enzyme solutions were prepared to give 0.28 units/mL aliquots. Stock solutions were prepared by dissolving 1 mg of tested compounds in 1 mL of DMSO and diluted to a final concentration of 1000, 800, 600, 400, 200, 100, and 50 µg/mL. The assay buffer solution A (pH = 8.0) was prepared by taking 93.2 mL of solution (6 g of sodium dihydrogen phosphate was dissolved in 500 mL of deionized water) and mixed with 6.8 mL of solution (7 g of sodium hydrogen phosphate was dissolved in 500 mL of deionized water) and adjusted. 57.7 mL of sodium dihydrogen phosphate and 42.3 mL of sodium hydrogen phosphate were mixed and adjusted to prepare the buffer B (pH = 7.0). […]
fresh solutions of 0.01 M DTNB (0.396 g of DTNB and 15 mg NaHCO3 were dissolved in 100 mL of the buffer B) in a dark place, and 0.075 M ATCI (0.2048 g of ATCI was dissolved in 10 mL of deionized water), were prepared. In 96-well plates, 20 μL of the test compounds, 10 μL of DTNB, 15 μL of the enzyme (AChE) and 140 μL of the buffer solution A, were added in dark conditions and incubated for 15 min, followed by the addition of ATCI (10 μL) and incubated again for the same period. The activity was measured by reading the absorbance of the solution at 412 nm. Blanks containing all the components except the enzyme were carried out.
IC50 values were calculated as the concentration of a compound that produces 50% enzyme activity inhibition using the GraphPad Prism 8 programme package. Results are expressed as the mean ± SD of at least three different experiments performed in triplicate.
Percentage inhibition was calculated by this formula:
% ሺInhibitionሻ = B−AB X 100
• A= absorbance of the enzyme with the test sample;
• B = absorbance of the enzyme without test sample.
• Each experiment was repeated thrice.

[2] = molecular target: human monoamine oxidase hMAO-B; conditions: cited from earlier work
[3] = molecular target: human monoamine oxidase hMAO-A; conditions: cited from earlier work
AChE = conditions: read-out: IC50 against AChE; cited from earlier work

T1 sequence (O42275 24-633): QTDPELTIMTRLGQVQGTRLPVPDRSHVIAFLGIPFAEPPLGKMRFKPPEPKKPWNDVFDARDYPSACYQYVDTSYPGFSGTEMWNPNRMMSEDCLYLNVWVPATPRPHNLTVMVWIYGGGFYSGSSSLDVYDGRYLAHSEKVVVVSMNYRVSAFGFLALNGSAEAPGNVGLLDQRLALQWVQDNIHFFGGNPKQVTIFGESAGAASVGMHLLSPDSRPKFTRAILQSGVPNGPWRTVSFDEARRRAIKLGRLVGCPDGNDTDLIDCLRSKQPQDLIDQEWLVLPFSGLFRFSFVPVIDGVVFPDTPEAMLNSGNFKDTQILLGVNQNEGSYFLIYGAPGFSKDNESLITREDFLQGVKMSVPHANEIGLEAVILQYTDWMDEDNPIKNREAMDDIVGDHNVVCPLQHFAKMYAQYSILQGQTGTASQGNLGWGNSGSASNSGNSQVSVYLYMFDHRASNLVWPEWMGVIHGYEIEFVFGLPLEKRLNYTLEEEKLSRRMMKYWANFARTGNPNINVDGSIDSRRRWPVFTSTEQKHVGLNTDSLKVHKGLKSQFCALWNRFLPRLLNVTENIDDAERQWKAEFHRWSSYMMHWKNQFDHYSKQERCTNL

Row | SMILES | IC50 [1] [µM] | also measured
1 | COc1ccc2c(COc3ccc(/C=N/c4ccccc4)cc3OC)cc(=O)oc2c1 [13e, (E)-7-Methoxy-4-((2-methoxy-4-((phenylimino)methyl)phenoxy)methyl)-2H-chromen-2-one] | 297 ± 6 | 
2 | COc1ccc2c(COc3cc(/C=N/c4ccc(Cl)cc4)ccc3OC)cc(=O)oc2c1 [13i, (E)-4-((5-(((4-Chlorophenyl)imino)methyl)-2-methoxyphenoxy)methyl)-7-methoxy-2H-chromen-2-one] | 712 ± 44 | 
3 | COc1ccc2c(COc3ccc(/C=N/c4ccc(Cl)cc4)cc3)cc(=O)oc2c1 [13c, (E)-4-((4-(((4-Chlorophenyl)imino)methyl)phenoxy)methyl)-7-methoxy-2H-chromen-2-one] | 232 ± 11 | potency relative to galantamine (positive control) [1]: 5 fold and ~ 5 fold
4 | O=c1oc2ccccc2c(O)c1/N=C/c1ccc(O)c(O)c1O [compound 4] |  | IC50 [2]: 0.711 µM; IC50 [3]: 0.673 µM
5 | Cc1c(O)ccc2c(CC(=O)NCCN3CCN(Cc4ccccc4)CC3)cc(=O)oc12 [compound 3] |  | IC50 (AChE): 0.04 µM
6 | COc1ccc(/N=C/c2ccc(OCc3cc(=O)oc4cc(OC)ccc34)c(OC)c2)cc1 [13f, (E)-7-Methoxy-4-((2-methoxy-4-(((4-methoxyphenyl)imino)methyl)phenoxy)methyl)-2H-chromen-2-one] | 365 ± 25 | 
7 | COc1ccc2c(COc3ccc(/C=N/c4ccc(Cl)cc4)cc3OC)cc(=O)oc2c1 [13d, (E)-4-((4-(((4-Chlorophenyl)imino)methyl)-2-methoxyphenoxy)methyl)-7-methoxy-2H-chromen-2-one] |  | potency relative to galantamine (positive control) [1]: 5 fold and ~ 5 fold
8 | O=C(N/N=C\c1c2ccccc2cc2ccccc12)c1ccccc1O [compound 5] |  | IC50 (AChE): 4.12 µM
9 | COc1ccc2c(COc3cccc(/C=N/c4ccc(Cl)cc4)c3)cc(=O)oc2c1 [13j, (E)-4-((3-(((4-Chlorophenyl)imino)methyl)phenoxy)methyl)-7-methoxy-2H-chromen-2-one] | 651 ± 3 | 
10 | COc1ccc(/N=C/c2cccc(OCc3cc(=O)oc4cc(OC)ccc34)c2)cc1 [13g, (E)-7-Methoxy-4-((3-(((4-methoxyphenyl)imino)methyl)phenoxy)methyl)-2H-chromen-2-one] | 1090 ± 58 | 
11 | COc1ccc2c(COc3ccc(/C=N/c4ccccc4)cc3)cc(=O)oc2c1 [13a, (E)-7-Methoxy-4-((4-((phenylimino)methyl)phenoxy)methyl)-2H-chromen-2-one] | 440 ± 16 | 
12 | COc1ccc(/N=C/c2ccc(OCc3cc(=O)oc4cc(OC)ccc34)cc2)cc1 [13b, (E)-7-Methoxy-4-((4-(((4-methoxyphenyl)imino)methyl)phenoxy)methyl)-2H-chromen-2-one] | 466 ± 7 | 
